How the values were obtained:
[1] = tested on: recombinant hepatitis B surface antigen (rHBsAg); experiment: Serum antibody titers to rHBsAg by ELISA after vaccination (Example 7); type: in vivo, BALB/c mice
Description: For the evaluation of antibody responses, […] by vaginal wash and individually tested for HBsAg-specific antibody activity by enzyme-linked immunosorbent assay (ELISA). The endpoint antibody titers of each mouse are evaluated as total IgG, IgG1, IgG2a, IgG2b and IgA specific for rHBsAg.
Compound III, isotucaresol, was evaluated for adjuvant activity with a model hepatitis B vaccine. III, was prepared as an aqueous formulation in PBS and admixed with recombinant hepatitis B surface antigen (rHBsAg) (Rhein Biotech, Düisseldorf, Germany) with or without the AGP adjuvant 99 (2-[(R)-3-tetradecanoyloxytetradecanoylamino]ethyl 2-Deoxy-4-O-phosphono-3-O-[(R)-3-tetradecanoyloxytetradecanoyl]-2-[(R)-3-tetradecanoyloxytetradecanoylamino]-β-D-glucopyranoside Triethylammonium Salt). Mice were administered the vaccines on days 0 and 21 by subcutaneous (s.c.) injection of vaccine containing 1 μg rHBsAg±1000 μg III±5 μg 99. The antigen-specific immune response to rHBsAg was evaluated by measurement of serum antibody and cytotoxic T lymphocytes (CTL).

[2] = tested on: transfected P815 cell line (P815S); experiment: CTL activity, four hour 51Cr-release assay with spleen cells of vaccinated mice (Example 7); type: in vivo, BALB/c mice; conditions: for Percent Specific Cell Lysis (50:1): 50:1 effector:target ratio, P815S targets, spleen cells 26 days after secondary vaccination, s.c. days 0 and 21, 1 μg rHBsAg ± 1000 μg III ± 5 μg 99
Description: Fourteen days after the second injection single cell suspensions are prepared from splenic lymphocytes of 3 mice per group. The spleen cells (75×10^6) are subsequently incubated at 37° C. in 10 ml RP10-SC media containing 50 nM of an L^d-restricted HBV CTL epitope ([…]) for 4 days. Stimulated effector cells are harvested, resuspended to 5×10^6 […] and serially diluted (in triplicate) in a volume of 100 μl RP10-SC/well of a 96 well microtiter plate followed by the addition of […] of RP10-SC containing 1×10^4 51Cr labeled P815S target cells (transfected P815 cells (H-2^d) expressing the hepatitis B S-antigen). Plates are centrifuged for 5 min at 400×g and placed in a 37° C. CO2 incubator for 4 h. Percent specific cytotoxicity is then determined.
(§1) Spleen cells were collected from donor mice 26 days after the secondary vaccination and evaluated for CTL activity. rHBsAg directed specific lysis was assessed in a standard four hour ^51Cr-release assay and by measurement of CD8+, IFNγ+ using flow cytometry.

CD8+, IFNγ+ cells [3] = experiment: CD8+, IFNγ+ lymphocytes by flow cytometry, spleen cells of vaccinated mice (Example 7); further: key: N: 1:5000-1:1000; 1N: 1:999-1:750; 2N: 1:749-1:500; 3N: 1:499-1:250; 4N: 1:249-1:200; 5N: 1:199-1:100; type: in vivo, BALB/c mice; conditions: spleen cells 26 days after secondary vaccination, 75 nM CTL epitope peptide, six-hour incubation; s.c. days 0 and 21, 1 μg rHBsAg ± 1000 μg III ± 5 μg 99
Description: as §1

[4] = tested on: recombinant hepatitis B surface antigen (rHBsAg); experiment: Serum antibody titers to rHBsAg by ELISA after vaccination (Example 8); type: in vivo, BALB/c mice; conditions: for adjuvant activity: serum antibody production (summary in words): rHBsAg vaccine, s.c. days 0 and 14, mice
Description: Compounds 40, 42, and 44, were evaluated for adjuvant activity with a model hepatitis B vaccine. These compounds were prepared as aqueous formulations in PBS and admixed with recombinant hepatitis B surface antigen (rHBsAg) with or without the AGP adjuvant 99. Compound 99 was solubilized in an aqueous formulation containing dipalmitoylphosphatidyl choline in water. Mice were administered the vaccines on days 0 and 14 by subcutaneous (s.c.) injection. The antigen-specific immune response to rHBsAg was evaluated by measurement of serum antibody and cytotoxic T lymphocytes (CTL). The results shown in Table 3 confirm the adjuvant activity of compounds of 40, 42, and 44.

CD8+, IFNγ+ cells [5] = experiment: CD8+, IFNγ+ lymphocytes by flow cytometry, spleen cells of vaccinated mice (Example 8); on CTL Ratio of CD8+, IFNγ+ Lymphocytes: key: N: 1:5000-1:1000; 1N: 1:999-1:750; 2N: 1:749-1:500; 3N: 1:499-1:250; 4N: 1:249-1:200; 5N: 1:199-1:100; type: in vivo, BALB/c mice; conditions: for CTL Ratio of CD8+, IFNγ+ Lymphocytes: female BALB/c mice, s.c. days 0 and 14, spleen cells 11 days after secondary vaccination; for CTL response to the hepatitis vaccine antigen (summary in words): rHBsAg vaccine, s.c. days 0 and 14, mice, CD8+, IFNγ+ flow cytometry
Description: Spleen cells were collected from donor mice 11 days after the secondary vaccination and evaluated for CTL activity. The rHBsAg directed CTL was assessed by measurement of CD8+, IFNγ+ using flow cytometry.

[6] = tested on: sheep red blood cells (SRBC); conditions: cited from earlier work
[7] = female BALB/c mice, s.c. days 0 and 21, 1 μg rHBsAg ± 1000 μg III ± 5 μg 99, serum 21 days post-secondary vaccination, ELISA
[8] = adjuvant dose 5 μg with rHBsAg, female BALB/c mice, s.c. days 0 and 14, serum 11 days post-secondary vaccination, ELISA
[9] = adjuvant dose 250 μg with rHBsAg, female BALB/c mice, s.c. days 0 and 14, serum 11 days post-secondary vaccination, ELISA
[10] = adjuvant dose 250 μg with rHBsAg
[11] = adjuvant dose 500 μg with rHBsAg
[12] = adjuvant dose 1000 μg with rHBsAg
[13] = 1 μg rHBsAg + 1000 μg III + 5 μg 99, s.c. days 0 and 21, mice

Molecule	Gross Geometric Mean Serum Titers IgG1 [1, 7]	Percent Specific Cell Lysis (50:1) [2]	Lymphocytes CD8+, IFNγ+ (ratio of CD8+, IFNγ+ cells to total CD8+ cells) (CD8+, IFNγ+ cells [3]) [N]	Gross Geometric Serum Titers IgG1 [4, 9]	adjuvant activity: serum antibody production (summary in words) [4]	CTL Ratio of CD8+, IFNγ+ Lymphocytes (CD8+, IFNγ+ cells [5]; [10]) [N]	CTL Ratio of CD8+, IFNγ+ Lymphocytes (CD8+, IFNγ+ cells [5]; [11]) [N]	CTL Ratio of CD8+, IFNγ+ Lymphocytes (CD8+, IFNγ+ cells [5]; [12]) [N]	CTL response to the hepatitis vaccine antigen (summary in words) (CD8+, IFNγ+ cells [5])	melting point	also measured
2-[(R)-3-tetradecanoyloxytetradecanoylamino]ethyl 2-Deoxy-4-O-phosphono-3-O-[(R)-3-tetradecanoyloxytetradecanoyl]-2-[(R)-3-tetradecanoyloxytetradecanoylamino]-β-D-glucopyranoside triethylammonium salt [Compound 99, reference compound]	5,000X	5+ (“5+” is 41-50 Percent Specific Cell Lysis)	3								Gross Geometric Mean Serum Titers IgG2a [1, 7]: 5,000X; Gross Geometric Serum Titers IGG [4, 8]: 5,000X; Gross Geometric Serum Titers IgG2a [4, 8]: 5,000X; CTL Ratio of CD8+, IFNγ+ Lymphocytes (CD8+, IFNγ+ cells [5]; adjuvant dose 5 μg with rHBsAg): 4N
C[C@@H]1CC[C@@]2(OC1)O[C@H]1[C@@H](O)[C@H]3[C@@H]4CC[C@H]5C[C@@H](O[C@@H]6O[C@H](CO)[C@H](O[C@@H]7O[C@H](CO)[C@@H](O)[C@H](O[C@@H]8OC[C@@H](O)[C@H](O)[C@H]8O)[C@H]7O[C@@H]7O[C@H](CO)[C@H](O)[C@H](O[C@@H]8O[C@H](CO)[C@@H](O)[C@H](O)[C@H]8O)[C@H]7O)[C@H](O)[C@H]6O)[C@H](O)C[C@]5(C)[C@H]4CC[C@]3(C)[C@H]1[C@@H]2C [digitonin]											hemolytic activity towards red blood cells [6]: highly hemolytic
COC(=O)c1ccc(COc2ccc(O)c(C=O)c2)cc1 [Compound 40, methyl 4-(3-formyl-4-hydroxyphenoxymethyl)benzoate]				1,000X	enhanced serum antibody production	3	2	5	enhance the CTL response	132 to 134 °C	Gross Geometric Serum Titers IgG1 ([4]; adjuvant dose 500 μg with rHBsAg, female BALB/c mice, s.c. days 0 and 14, serum 11 days post-secondary vaccination, ELISA): 5,000X; Gross Geometric Serum Titers IgG1 ([4]; adjuvant dose 1000 μg with rHBsAg, female BALB/c mice, s.c. days 0 and 14, serum 11 days post-secondary vaccination, ELISA): 5,000X
O=Cc1cc(OCc2ccc(C(=O)O)cc2)ccc1O [Compound III, 4-[(3-formyl-4-hydroxyphenoxy)methyl]benzoic acid]	5,000X	4+ (“4+” is 31-40 Percent Specific Cell Lysis)	2							222 to 224 °C (dec.)	interaction with the AGP adjuvant 99 on serum antibody (summary in words) [1, 13]: acts synergistically; adjuvant activity: serum antibody production (summary in words) ([1]; 1 μg rHBsAg + 1000 μg III, s.c. days 0 and 21, mice): enhanced serum antibody production; Gross Geometric Mean Serum Titers IgG [1, 7]: 5,000X; effect on the CTL adjuvant activity induced by 99 (summary in words) [2, 13]: additive effect; CTL response to the vaccine antigen (summary in words) ([2]; 1 μg rHBsAg + 1000 μg III, s.c. days 0 and 21, mice, 51Cr-release and CD8+, IFNγ+ flow cytometry): enhances the CTL response
O=Cc1cc(OCc2ccc(C(=O)O)cc2)ccc1OCCCC(=O)O [Compound 44]					enhanced serum antibody production	4	3	2	enhance the CTL response		
O=Cc1cc(OCc2ccc(C(=O)O)cc2)ccc1OCC(=O)O [Compound 42, 4-[(4-carboxymethoxy-3-formyl-phenoxy)methyl]benzoic acid]				1,000X	enhanced serum antibody production	5	3	2	enhance the CTL response	239 to 242 °C (dec.)	
